Results reported in ChEMBL document CHEMBL3991601, “The target landscape of clinical kinase drugs” (Science, 2017).
Activity calls are given as the source filed them. For most assays here, no stated cut-off is given here; in the data, actives have a measured Kd and inactives only a lower limit.

Columns and labels:
[1] = target: Adenylate kinase 2, mitochondrial (Homo sapiens, UniProt P54819)
[2] = target: Mitogen-activated protein kinase 9 (Homo sapiens, UniProt P45984)
[3] = target: Tyrosine-protein kinase ABL2 (Homo sapiens, UniProt P42684)
[4] = target: T1, Dynamin-like GTPase OPA1, mitochondrial (Homo sapiens, UniProt O60313)
T1 sequence (O60313 whole entry): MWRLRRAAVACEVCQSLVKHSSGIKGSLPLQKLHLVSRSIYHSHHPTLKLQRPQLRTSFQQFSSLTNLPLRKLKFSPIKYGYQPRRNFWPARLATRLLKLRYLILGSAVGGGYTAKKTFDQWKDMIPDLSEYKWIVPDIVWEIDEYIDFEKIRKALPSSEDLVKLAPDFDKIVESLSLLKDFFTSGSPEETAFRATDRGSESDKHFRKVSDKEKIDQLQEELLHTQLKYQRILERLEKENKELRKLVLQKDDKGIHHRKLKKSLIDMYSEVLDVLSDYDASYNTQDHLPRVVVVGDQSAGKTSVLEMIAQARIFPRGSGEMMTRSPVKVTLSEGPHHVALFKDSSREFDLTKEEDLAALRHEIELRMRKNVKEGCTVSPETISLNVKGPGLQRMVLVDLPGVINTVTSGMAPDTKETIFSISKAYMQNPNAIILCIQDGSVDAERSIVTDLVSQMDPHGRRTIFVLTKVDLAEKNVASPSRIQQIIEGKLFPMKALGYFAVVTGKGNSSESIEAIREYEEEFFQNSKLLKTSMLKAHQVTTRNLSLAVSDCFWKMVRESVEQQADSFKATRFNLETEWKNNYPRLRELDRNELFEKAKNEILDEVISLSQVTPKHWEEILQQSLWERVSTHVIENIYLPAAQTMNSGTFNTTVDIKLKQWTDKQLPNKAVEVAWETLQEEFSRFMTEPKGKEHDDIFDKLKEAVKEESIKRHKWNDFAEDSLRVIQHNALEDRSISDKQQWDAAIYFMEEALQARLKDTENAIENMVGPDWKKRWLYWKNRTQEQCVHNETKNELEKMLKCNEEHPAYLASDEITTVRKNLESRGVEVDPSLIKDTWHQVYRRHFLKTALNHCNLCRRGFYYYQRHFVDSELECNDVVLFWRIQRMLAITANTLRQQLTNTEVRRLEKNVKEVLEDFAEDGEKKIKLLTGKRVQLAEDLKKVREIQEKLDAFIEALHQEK

[5] = target: Tyrosine-protein kinase CSK (Homo sapiens, UniProt P41240)
[6] = target: Casein kinase I isoform alpha (Homo sapiens, UniProt P48729)
[7] = target: T2, Activin receptor type-1B (Homo sapiens, UniProt P36896)
T2 sequence (P36896 whole entry): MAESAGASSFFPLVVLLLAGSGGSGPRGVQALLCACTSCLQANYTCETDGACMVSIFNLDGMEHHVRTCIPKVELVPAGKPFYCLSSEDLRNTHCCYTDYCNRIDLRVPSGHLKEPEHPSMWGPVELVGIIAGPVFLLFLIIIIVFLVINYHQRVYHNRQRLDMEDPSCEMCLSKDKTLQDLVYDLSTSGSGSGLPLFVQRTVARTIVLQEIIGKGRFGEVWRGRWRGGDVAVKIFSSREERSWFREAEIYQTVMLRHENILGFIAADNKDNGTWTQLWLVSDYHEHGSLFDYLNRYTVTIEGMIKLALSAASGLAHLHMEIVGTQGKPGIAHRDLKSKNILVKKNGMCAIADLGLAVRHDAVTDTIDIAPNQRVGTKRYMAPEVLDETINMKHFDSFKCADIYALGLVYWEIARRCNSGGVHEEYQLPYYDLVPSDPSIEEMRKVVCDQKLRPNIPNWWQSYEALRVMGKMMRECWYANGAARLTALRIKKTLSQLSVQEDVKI

[8] = target: T3, ATP-dependent RNA helicase DDX1 (Homo sapiens, UniProt Q92499)
T3 sequence (Q92499 whole entry): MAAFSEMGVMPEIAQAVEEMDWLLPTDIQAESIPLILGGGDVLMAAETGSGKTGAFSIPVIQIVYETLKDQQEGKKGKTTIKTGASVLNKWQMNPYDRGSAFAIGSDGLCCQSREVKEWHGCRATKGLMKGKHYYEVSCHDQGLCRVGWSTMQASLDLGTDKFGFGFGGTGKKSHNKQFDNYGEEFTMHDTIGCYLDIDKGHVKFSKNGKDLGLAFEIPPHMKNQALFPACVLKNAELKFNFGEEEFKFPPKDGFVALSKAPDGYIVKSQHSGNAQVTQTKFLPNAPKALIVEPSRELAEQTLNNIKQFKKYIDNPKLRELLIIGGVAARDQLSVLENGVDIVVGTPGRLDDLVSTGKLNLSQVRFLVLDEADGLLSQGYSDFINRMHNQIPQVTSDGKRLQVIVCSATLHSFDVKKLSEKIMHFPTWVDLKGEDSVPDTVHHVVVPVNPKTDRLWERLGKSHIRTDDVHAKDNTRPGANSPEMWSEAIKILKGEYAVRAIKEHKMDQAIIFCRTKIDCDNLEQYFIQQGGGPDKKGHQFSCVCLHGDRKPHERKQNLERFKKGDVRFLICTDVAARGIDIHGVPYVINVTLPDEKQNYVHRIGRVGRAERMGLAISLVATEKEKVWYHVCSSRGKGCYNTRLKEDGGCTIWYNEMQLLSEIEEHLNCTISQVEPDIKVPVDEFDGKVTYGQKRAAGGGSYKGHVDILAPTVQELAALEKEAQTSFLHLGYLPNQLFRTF

[9] = target: Wee1-like protein kinase (Homo sapiens, UniProt P30291)
[10] = target: Tyrosine-protein kinase ABL1 (Homo sapiens, UniProt P00519)
[11] = target: Tyrosine-protein kinase HCK (Homo sapiens, UniProt P08631)
[12] = target: Protein kinase C delta type (Homo sapiens, UniProt Q05655)
Chain of Protein kinase C delta type (Q05655 whole entry): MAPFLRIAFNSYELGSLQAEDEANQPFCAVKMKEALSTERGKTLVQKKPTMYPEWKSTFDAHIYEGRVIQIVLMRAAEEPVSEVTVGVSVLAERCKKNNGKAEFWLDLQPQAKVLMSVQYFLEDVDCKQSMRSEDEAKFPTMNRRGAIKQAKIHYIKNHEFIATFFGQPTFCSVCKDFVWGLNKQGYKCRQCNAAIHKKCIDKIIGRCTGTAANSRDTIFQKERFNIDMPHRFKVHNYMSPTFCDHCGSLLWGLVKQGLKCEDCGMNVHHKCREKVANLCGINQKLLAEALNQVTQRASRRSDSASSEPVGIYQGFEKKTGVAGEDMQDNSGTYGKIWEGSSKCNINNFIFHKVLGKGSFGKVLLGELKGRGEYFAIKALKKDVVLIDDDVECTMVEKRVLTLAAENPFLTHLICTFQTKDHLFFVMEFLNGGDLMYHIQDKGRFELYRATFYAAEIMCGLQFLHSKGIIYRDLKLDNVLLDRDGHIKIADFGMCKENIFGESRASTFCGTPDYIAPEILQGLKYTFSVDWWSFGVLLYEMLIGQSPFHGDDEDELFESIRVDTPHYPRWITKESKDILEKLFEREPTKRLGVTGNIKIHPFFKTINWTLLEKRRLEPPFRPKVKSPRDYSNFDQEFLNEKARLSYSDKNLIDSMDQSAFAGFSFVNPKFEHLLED

Chain of Casein kinase I isoform alpha (P48729 whole entry, canonical isoform): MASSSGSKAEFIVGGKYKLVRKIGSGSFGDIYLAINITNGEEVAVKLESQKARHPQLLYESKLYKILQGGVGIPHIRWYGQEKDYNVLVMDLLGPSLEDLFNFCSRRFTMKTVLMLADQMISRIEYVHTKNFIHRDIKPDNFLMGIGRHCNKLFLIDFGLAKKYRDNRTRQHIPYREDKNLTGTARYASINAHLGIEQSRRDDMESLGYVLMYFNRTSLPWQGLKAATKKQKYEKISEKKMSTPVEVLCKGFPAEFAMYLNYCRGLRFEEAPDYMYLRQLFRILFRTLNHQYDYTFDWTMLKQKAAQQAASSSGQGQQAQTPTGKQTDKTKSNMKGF
Chain of Tyrosine-protein kinase HCK (P08631 whole entry): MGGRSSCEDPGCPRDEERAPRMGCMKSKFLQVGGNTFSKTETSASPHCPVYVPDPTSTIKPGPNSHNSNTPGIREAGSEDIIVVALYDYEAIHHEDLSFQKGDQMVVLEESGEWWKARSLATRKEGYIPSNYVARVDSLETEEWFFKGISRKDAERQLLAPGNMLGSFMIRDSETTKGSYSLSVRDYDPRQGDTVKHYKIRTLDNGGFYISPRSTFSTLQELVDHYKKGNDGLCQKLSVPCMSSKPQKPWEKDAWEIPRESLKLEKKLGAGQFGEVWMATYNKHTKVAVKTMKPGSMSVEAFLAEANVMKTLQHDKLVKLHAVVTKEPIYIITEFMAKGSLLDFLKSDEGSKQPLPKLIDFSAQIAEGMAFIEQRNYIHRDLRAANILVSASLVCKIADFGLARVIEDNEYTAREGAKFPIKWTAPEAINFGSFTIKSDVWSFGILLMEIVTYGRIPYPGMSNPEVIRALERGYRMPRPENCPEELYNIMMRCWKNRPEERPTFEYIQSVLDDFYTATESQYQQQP
Chain of Tyrosine-protein kinase ABL2 (P42684 whole entry): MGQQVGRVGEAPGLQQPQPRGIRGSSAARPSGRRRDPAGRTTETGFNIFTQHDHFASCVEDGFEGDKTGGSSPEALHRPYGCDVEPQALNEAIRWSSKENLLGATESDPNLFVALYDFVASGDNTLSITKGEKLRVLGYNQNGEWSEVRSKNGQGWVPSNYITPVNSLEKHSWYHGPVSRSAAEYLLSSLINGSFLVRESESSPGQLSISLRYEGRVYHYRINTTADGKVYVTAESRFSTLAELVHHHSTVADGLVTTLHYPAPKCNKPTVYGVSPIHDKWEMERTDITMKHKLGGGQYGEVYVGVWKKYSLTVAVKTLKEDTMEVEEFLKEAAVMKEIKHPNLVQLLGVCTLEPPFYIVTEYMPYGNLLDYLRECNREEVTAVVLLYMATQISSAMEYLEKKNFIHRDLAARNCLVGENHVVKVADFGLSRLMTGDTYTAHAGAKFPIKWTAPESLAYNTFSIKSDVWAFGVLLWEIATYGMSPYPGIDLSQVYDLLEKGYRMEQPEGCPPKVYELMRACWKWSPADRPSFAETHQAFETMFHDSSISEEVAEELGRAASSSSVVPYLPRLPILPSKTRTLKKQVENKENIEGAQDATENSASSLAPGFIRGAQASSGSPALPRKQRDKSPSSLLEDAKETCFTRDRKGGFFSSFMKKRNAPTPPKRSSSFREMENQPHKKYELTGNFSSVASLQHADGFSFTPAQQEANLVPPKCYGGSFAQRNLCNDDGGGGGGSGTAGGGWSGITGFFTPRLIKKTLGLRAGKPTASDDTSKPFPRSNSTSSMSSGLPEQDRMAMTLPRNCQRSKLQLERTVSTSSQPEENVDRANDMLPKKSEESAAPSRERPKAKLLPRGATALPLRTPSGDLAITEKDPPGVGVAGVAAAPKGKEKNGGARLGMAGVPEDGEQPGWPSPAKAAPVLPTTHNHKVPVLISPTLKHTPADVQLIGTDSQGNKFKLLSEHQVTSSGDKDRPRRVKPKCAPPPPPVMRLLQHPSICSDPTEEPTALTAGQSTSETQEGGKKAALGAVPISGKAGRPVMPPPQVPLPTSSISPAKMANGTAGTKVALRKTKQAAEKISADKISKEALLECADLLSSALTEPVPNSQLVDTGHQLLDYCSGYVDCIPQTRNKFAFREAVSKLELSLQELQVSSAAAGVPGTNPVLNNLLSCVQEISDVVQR
Chain of Wee1-like protein kinase (P30291 whole entry): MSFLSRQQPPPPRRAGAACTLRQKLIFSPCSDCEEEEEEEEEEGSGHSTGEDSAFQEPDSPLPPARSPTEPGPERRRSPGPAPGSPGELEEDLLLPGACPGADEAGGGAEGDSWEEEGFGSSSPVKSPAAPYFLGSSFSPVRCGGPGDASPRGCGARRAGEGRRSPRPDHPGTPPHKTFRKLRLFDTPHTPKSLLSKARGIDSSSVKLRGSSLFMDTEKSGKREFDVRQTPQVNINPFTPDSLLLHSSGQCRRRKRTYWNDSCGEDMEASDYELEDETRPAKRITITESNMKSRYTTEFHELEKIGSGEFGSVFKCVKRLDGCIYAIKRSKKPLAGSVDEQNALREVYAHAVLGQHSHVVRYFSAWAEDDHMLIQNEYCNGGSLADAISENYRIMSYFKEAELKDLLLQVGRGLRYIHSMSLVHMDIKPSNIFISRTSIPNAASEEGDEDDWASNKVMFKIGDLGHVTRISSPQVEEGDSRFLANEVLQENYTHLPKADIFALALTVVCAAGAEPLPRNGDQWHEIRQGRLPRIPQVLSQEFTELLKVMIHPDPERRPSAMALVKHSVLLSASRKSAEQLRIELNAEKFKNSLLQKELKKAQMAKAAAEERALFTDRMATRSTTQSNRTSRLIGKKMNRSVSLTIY
Chain of Mitogen-activated protein kinase 9 (P45984 whole entry): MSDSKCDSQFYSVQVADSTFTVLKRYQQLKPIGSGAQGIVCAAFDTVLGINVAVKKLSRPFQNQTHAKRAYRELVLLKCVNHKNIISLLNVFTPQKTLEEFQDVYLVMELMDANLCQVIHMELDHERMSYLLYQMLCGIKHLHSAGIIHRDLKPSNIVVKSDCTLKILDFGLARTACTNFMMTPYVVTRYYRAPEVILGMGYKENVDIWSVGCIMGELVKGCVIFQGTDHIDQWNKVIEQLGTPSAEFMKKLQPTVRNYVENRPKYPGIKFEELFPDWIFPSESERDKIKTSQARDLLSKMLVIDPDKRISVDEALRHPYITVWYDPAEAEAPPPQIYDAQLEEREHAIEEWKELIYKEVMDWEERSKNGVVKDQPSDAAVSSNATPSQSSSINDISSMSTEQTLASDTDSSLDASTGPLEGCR
Chain of Tyrosine-protein kinase ABL1 (P00519 whole entry): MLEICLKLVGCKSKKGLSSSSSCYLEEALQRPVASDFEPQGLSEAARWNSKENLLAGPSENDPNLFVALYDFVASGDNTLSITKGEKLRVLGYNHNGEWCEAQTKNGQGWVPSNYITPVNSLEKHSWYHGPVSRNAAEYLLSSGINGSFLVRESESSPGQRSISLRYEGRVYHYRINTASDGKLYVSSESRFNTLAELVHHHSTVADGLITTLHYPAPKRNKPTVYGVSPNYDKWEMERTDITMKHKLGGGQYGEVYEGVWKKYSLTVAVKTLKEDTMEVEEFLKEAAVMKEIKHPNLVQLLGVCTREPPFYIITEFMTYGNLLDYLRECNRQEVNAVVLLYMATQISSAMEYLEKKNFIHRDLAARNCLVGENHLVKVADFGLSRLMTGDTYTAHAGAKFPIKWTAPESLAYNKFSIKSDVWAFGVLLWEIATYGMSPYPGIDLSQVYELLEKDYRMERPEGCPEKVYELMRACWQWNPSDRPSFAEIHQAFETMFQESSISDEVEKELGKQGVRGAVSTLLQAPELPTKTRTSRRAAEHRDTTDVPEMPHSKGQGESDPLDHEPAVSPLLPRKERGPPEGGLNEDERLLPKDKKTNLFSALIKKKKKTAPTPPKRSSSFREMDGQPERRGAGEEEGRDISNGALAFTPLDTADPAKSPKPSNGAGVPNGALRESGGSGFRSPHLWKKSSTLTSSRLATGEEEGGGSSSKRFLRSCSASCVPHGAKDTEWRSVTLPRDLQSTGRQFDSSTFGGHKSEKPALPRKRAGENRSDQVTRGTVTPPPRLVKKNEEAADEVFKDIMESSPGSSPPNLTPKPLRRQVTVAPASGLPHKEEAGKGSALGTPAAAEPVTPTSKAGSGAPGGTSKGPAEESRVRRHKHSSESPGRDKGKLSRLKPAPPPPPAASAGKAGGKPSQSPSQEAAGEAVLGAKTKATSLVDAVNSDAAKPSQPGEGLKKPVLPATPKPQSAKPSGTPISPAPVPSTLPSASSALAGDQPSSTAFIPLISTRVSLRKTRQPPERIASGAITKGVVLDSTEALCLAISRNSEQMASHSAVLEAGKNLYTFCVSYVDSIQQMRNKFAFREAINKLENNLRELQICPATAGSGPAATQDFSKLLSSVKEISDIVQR

Kd [1]	Kd [2]	Kd [3]	Kd [4]	Kd [5]	Kd [6]	Kd [7]	Kd [8]	Kd [9]	Kd [10]	Kd [11]	Kd [12]	Compound
> 30 µM (inactive)	> 30 µM (inactive)	> 30 µM (inactive)	> 30 µM (inactive)	> 30 µM (inactive)	> 30 µM (inactive)	> 30 µM (inactive)	> 30 µM (inactive)	> 30 µM (inactive)	> 30 µM (inactive)	> 30 µM (inactive)	> 30 µM (inactive)	COc1cc2ncnc(Nc3ccc(F)c(Cl)c3)c2cc1NC(=O)/C=C/CN1CCCCC1 [DACOMITINIB ANHYDROUS]
> 30 µM (inactive)	> 30 µM (inactive)	> 30 µM (inactive)	> 30 µM (inactive)	> 30 µM (inactive)	> 30 µM (inactive)	> 30 µM (inactive)	> 30 µM (inactive)	> 30 µM (inactive)	> 30 µM (inactive)	> 30 µM (inactive)	> 30 µM (inactive)	COc1ccc2c(OCc3nnc4ccc(-c5ccccc5)nn34)ccnc2c1 [AMG-208]
> 30 µM (inactive)	> 30 µM (inactive)	> 30 µM (inactive)	> 30 µM (inactive)	> 30 µM (inactive)	> 30 µM (inactive)	> 30 µM (inactive)	> 30 µM (inactive)	> 30 µM (inactive)	> 30 µM (inactive)	> 30 µM (inactive)	> 30 µM (inactive)	O=C(NC[C@H](O)CO)c1ccncc1Nc1ccc(I)cc1F [PIMASERTIB]
> 30 µM (inactive)	> 30 µM (inactive)	> 30 µM (inactive)	> 30 µM (inactive)	> 30 µM (inactive)	> 30 µM (inactive)	> 30 µM (inactive)	> 30 µM (inactive)	> 30 µM (inactive)	> 30 µM (inactive)	> 30 µM (inactive)	> 30 µM (inactive)	C#Cc1cccc(Nc2ncnc3cc4c(cc23)OCCOCCOCCO4)c1 [ICOTINIB]
